Results from ChEMBL document CHEMBL1649156, “Antianaerobic activity of sulopenem compared to six other agents” (2009).

Key:
Format in all cases: functional
Prevotella buccae = experiment: Antimicrobial activity in Prevotella buccae by CLSI agar dilution method in presence of Sulbactam; conditions: Segatella buccae
[1] = tested on: Prevotella melaninogenica; experiment: Antimicrobial activity in Prevotella melaninogenica by CLSI agar dilution method in presence of Sulbactam
Clostridium sp. = experiment: Antimicrobial activity in Clostridium sp. by CLSI agar dilution method in presence of Sulbactam
Tissierella praeacuta = experiment: Antimicrobial activity in Clostridium hastiforme by CLSI agar dilution method in presence of Sulbactam
Prevotella bergensis = experiment: Antimicrobial activity in Prevotella bergensis by CLSI agar dilution method in presence of Sulbactam; conditions: Hallella bergensis
Clostridioides difficile = experiment: Antimicrobial activity in Clostridium difficile by CLSI agar dilution method in presence of Sulbactam
Finegoldia magna = experiment: Antimicrobial activity in Finegoldia magna by CLSI agar dilution method in presence of Sulbactam
Bacteroides stercoris = experiment: Antimicrobial activity in Bacteroides stercoris by CLSI agar dilution method in presence of Sulbactam
Prevotella intermedia = experiment: Antimicrobial activity in Prevotella intermedia by CLSI agar dilution method in presence of Sulbactam
Cutibacterium acnes = experiment: Antimicrobial activity in Propionibacterium acnes by CLSI agar dilution method in presence of Sulbactam
Porphyromonas gingivalis = experiment: Antimicrobial activity in Porphyromonas gingivalis by CLSI agar dilution method in presence of Sulbactam
[2] = tested on: Paeniclostridium sordellii; experiment: Antimicrobial activity in Clostridium sordellii by CLSI agar dilution method in presence of Sulbactam; conditions: Paraclostridium sordellii
Prevotella nigrescens = experiment: Antimicrobial activity in Prevotella nigrescens by CLSI agar dilution method in presence of Sulbactam
Actinomyces = experiment: Antimicrobial activity in Actinomyces by CLSI agar dilution method in presence of Sulbactam
Bifidobacterium = experiment: Antimicrobial activity in Bifidobacterium by CLSI agar dilution method in presence of Sulbactam
Parvimonas micra = experiment: Antimicrobial activity in Micromonas micros by CLSI agar dilution method in presence of Sulbactam
Lactobacillus = experiment: Antimicrobial activity in Lactobacillus by CLSI agar dilution method in presence of Sulbactam
[3] = tested on: Peptostreptococcus anaerobius; experiment: Antimicrobial activity in Peptostreptococcus anaerobius by CLSI agar dilution method in presence of Sulbactam
Fusobacterium mortiferum = experiment: Antimicrobial activity in Fusobacterium mortiferum by CLSI agar dilution method in presence of Sulbactam
Fusobacterium nucleatum = experiment: Antimicrobial activity in Fusobacterium nucleatum by CLSI agar dilution method in presence of Sulbactam
Eggerthella lenta = experiment: Antimicrobial activity in Eggerthella lenta by CLSI agar dilution method in presence of Sulbactam
Hoylesella oralis = experiment: Antimicrobial activity in Prevotella oralis group by CLSI agar dilution method in presence of Sulbactam
Thomasclavelia ramosa = experiment: Antimicrobial activity in Clostridium ramosum by CLSI agar dilution method in presence of Sulbactam
[Clostridium] innocuum = Antimicrobial activity in Clostridium innocuum by CLSI agar dilution method in presence of Sulbactam
[4] = tested on: Parabacteroides distasonis; experiment: Antimicrobial activity in Bacteroides distasonis by CLSI agar dilution method in presence of Sulbactam
Prevotella corporis = experiment: Antimicrobial activity in Prevotella corporis by CLSI agar dilution method in presence of Sulbactam
Hoylesella loescheii = experiment: Antimicrobial activity in Prevotella loescheii by CLSI agar dilution method in presence of Sulbactam
Prevotella baroniae = experiment: Antimicrobial activity in Prevotella baroniae by CLSI agar dilution method in presence of Sulbactam; conditions: Segatella baroniae
Clostridium perfringens = experiment: Antimicrobial activity in Clostridium perfringens by CLSI agar dilution method in presence of Sulbactam
Prevotella salivae = experiment: Antimicrobial activity in Prevotella salivae by CLSI agar dilution method in presence of Sulbactam; conditions: Segatella salivae
[5] = tested on: Peptoniphilus asaccharolyticus; experiment: Antimicrobial activity in Peptoniphilus asaccharolyticus by CLSI agar dilution method in presence of Sulbactam
Anaerococcus tetradius = experiment: Antimicrobial activity in Anaerococcus tetradius by CLSI agar dilution method in presence of Sulbactam
Bacteroides ovatus = experiment: Antimicrobial activity in Bacteroides ovatus by CLSI agar dilution method in presence of Sulbactam
Prevotella veroralis = experiment: Antimicrobial activity in Prevotella veroralis by CLSI agar dilution method in presence of Sulbactam
[6] = tested on: Porphyromonas asaccharolytica; experiment: Antimicrobial activity in Porphyromonas asaccharolytica by CLSI agar dilution method in presence of Sulbactam
Fusobacterium varium = experiment: Antimicrobial activity in Fusobacterium varium by CLSI agar dilution method in presence of Sulbactam
Phocaeicola vulgatus = experiment: Antimicrobial activity in Bacteroides vulgatus by CLSI agar dilution method in presence of Sulbactam
Clostridium butyricum = experiment: Antimicrobial activity in Clostridium butyricum by CLSI agar dilution method in presence of Sulbactam
Prevotella denticola = experiment: Antimicrobial activity in Prevotella denticola by CLSI agar dilution method in presence of Sulbactam
Clostridium cadaveris = experiment: Antimicrobial activity in Clostridium cadaveris by CLSI agar dilution method in presence of Sulbactam
Prevotella sp. = experiment: Antimicrobial activity in Prevotella sp.by CLSI agar dilution method in presence of Sulbactam
Bacteroides fragilis = experiment: Antimicrobial activity in Bacteroides fragilis by CLSI agar dilution method in presence of Sulbactam
Bacteroides uniformis = experiment: Antimicrobial activity in Bacteroides uniformis by CLSI agar dilution method in presence of Sulbactam
Clostridium tertium = experiment: Antimicrobial activity in Clostridium tertium by CLSI agar dilution method in presence of Sulbactam
Anaerococcus prevotii = experiment: Antimicrobial activity in Anaerococcus prevotii by CLSI agar dilution method in presence of Sulbactam
[7] = tested on: Bacteroides thetaiotaomicron; experiment: Antimicrobial activity in Bacteroides thetaiotaomicron by CLSI agar dilution method in presence of Sulbactam
Prevotella bivia = experiment: Antimicrobial activity in Prevotella bivia by CLSI agar dilution method in presence of Sulbactam
[8] = tested on: Paraclostridium bifermentans; experiment: Antimicrobial activity in Clostridium bifermentans by CLSI agar dilution method in presence of Sulbactam
[9] = tested on: Enterocloster clostridioformis; experiment: Antimicrobial activity in Clostridium clostridioforme by CLSI agar dilution method in presence of Sulbactam
[10] = tested on: Fusobacterium necrophorum; experiment: Antimicrobial activity in Fusobacterium necrophorum by CLSI agar dilution method in presence of Sulbactam
Prevotella disiens = experiment: Antimicrobial activity in Prevotella disiens by CLSI agar dilution method in presence of Sulbactam

SMILES: CC1(C)S[C@@H]2[C@H](NC(=O)[C@H](N)c3ccccc3)C(=O)N2[C@H]1C(=O)O [AMPICILLIN]
- MIC50 (Prevotella buccae): 0.25 µg/mL
- MIC90 (Prevotella buccae): 2 µg/mL
- MIC50 [1]: 0.5 µg/mL
- MIC90 [1]: 2 µg/mL
- MIC50 (Clostridium sp.): 0.25 µg/mL
- MIC90 (Clostridium sp.): 0.5 µg/mL
- MIC (Tissierella praeacuta): 1 µg/mL
- MIC (Prevotella bergensis): 1 µg/mL
- MIC50 (Clostridioides difficile): 2 µg/mL
- MIC90 (Clostridioides difficile): 2 µg/mL
- MIC50 (Finegoldia magna): 0.25 µg/mL
- MIC90 (Finegoldia magna): 0.5 µg/mL
- MIC (Bacteroides stercoris): 1 µg/mL
- MIC50 (Bacteroides stercoris): 2 µg/mL
- MIC50 (Prevotella intermedia): 0.25 µg/mL
- MIC90 (Prevotella intermedia): 0.5 µg/mL
- MIC (Cutibacterium acnes): ≤ 0.125 µg/mL
- MIC50 (Cutibacterium acnes): ≤ 0.125 µg/mL
- MIC90 (Cutibacterium acnes): 0.25 µg/mL
- MIC (Porphyromonas gingivalis): ≤ 0.125 µg/mL
- MIC [2]: ≤ 0.125 µg/mL
- MIC50 (Prevotella nigrescens): 0.25 µg/mL
- MIC90 (Prevotella nigrescens): 0.5 µg/mL
- MIC (Actinomyces): ≤ 0.125 µg/mL
- MIC50 (Actinomyces): 0.25 µg/mL
- MIC (Bifidobacterium): ≤ 0.125 µg/mL
- MIC50 (Bifidobacterium): ≤ 0.125 µg/mL
- MIC90 (Bifidobacterium): 0.25 µg/mL
- MIC (Parvimonas micra): ≤ 0.125 µg/mL
- MIC50 (Parvimonas micra): ≤ 0.125 µg/mL
- MIC90 (Parvimonas micra): 1 µg/mL
- MIC50 (Lactobacillus): 1 µg/mL
- MIC90 (Lactobacillus): 1 µg/mL
- MIC50 [3]: 0.25 µg/mL
- MIC90 [3]: 16 µg/mL
- MIC50 (Fusobacterium mortiferum): 1 µg/mL
- MIC90 (Fusobacterium mortiferum): > 32 µg/mL
- MIC (Fusobacterium nucleatum): ≤ 0.125 µg/mL
- MIC50 (Fusobacterium nucleatum): ≤ 0.125 µg/mL
- MIC90 (Fusobacterium nucleatum): ≤ 0.125 µg/mL
- MIC50 (Eggerthella lenta): 1 µg/mL
- MIC90 (Eggerthella lenta): 2 µg/mL
- MIC (Hoylesella oralis): ≤ 0.125 µg/mL
- MIC (Thomasclavelia ramosa): ≤ 0.125 µg/mL
- MIC ([Clostridium] innocuum): ≤ 0.125 µg/mL
- MIC50 [4]: 8 µg/mL
- MIC90 [4]: 32 µg/mL
- MIC (Prevotella corporis): ≤ 0.125 µg/mL
- MIC50 (Prevotella corporis): ≤ 0.125 µg/mL
- MIC (Hoylesella loescheii): 0.5 µg/mL
- MIC (Prevotella baroniae): ≤ 0.125 µg/mL
- MIC (Clostridium perfringens): ≤ 0.125 µg/mL
- MIC50 (Clostridium perfringens): ≤ 0.125 µg/mL
- MIC90 (Clostridium perfringens): 0.25 µg/mL
- MIC (Prevotella salivae): ≤ 0.125 µg/mL
- MIC [5]: ≤ 0.125 µg/mL
- MIC50 [5]: ≤ 0.125 µg/mL
- MIC (Anaerococcus tetradius): ≤ 0.125 µg/mL
- MIC50 (Anaerococcus tetradius): ≤ 0.125 µg/mL
- MIC90 (Anaerococcus tetradius): ≤ 0.125 µg/mL
- MIC (Bacteroides ovatus): 1 µg/mL
- MIC50 (Bacteroides ovatus): 1 µg/mL
- MIC90 (Bacteroides ovatus): 4 µg/mL
- MIC (Prevotella veroralis): ≤ 0.125 µg/mL
- MIC [6]: ≤ 0.125 µg/mL
- MIC50 (Fusobacterium varium): 2 µg/mL
- MIC90 (Fusobacterium varium): 2 µg/mL
- MIC50 (Phocaeicola vulgatus): 2 µg/mL
- MIC90 (Phocaeicola vulgatus): 16 µg/mL
- MIC (Clostridium butyricum): 1 µg/mL
- MIC50 (Prevotella denticola): 0.5 µg/mL
- MIC90 (Prevotella denticola): 2 µg/mL
- MIC (Clostridium cadaveris): ≤ 0.125 µg/mL
- MIC (Prevotella sp.): ≤ 0.125 µg/mL
- MIC50 (Bacteroides fragilis): 1 µg/mL
- MIC90 (Bacteroides fragilis): 8 µg/mL
- MIC (Bacteroides uniformis): 1 µg/mL
- MIC50 (Bacteroides uniformis): 1 µg/mL
- MIC (Clostridium tertium): 0.25 µg/mL
- MIC50 (Clostridium tertium): 0.25 µg/mL
- MIC (Anaerococcus prevotii): ≤ 0.125 µg/mL
- MIC50 [7]: 2 µg/mL
- MIC90 [7]: 8 µg/mL
- MIC50 (Prevotella bivia): 1 µg/mL
- MIC90 (Prevotella bivia): 4 µg/mL
- MIC [8]: 0.5 µg/mL
- MIC [9]: 1 µg/mL
- MIC [10]: ≤ 0.125 µg/mL
- MIC50 [10]: ≤ 0.125 µg/mL
- MIC (Prevotella disiens): ≤ 0.125 µg/mL
- MIC50 (Prevotella disiens): 0.25 µg/mL
